Consider 2 compounds from patent US20080286216A1, “Surface Active Calcium Phosphates” (priority 2005, published 2008).

Bounds are passed on as bounds.

Data set [1] relates to human dental plaque microcosm biofilms. The data set can be described thus: Tooth remineralisation: mineral deposition in dental plaque microcosm biofilms (Wong et al. method). The class given is cell-based. Particulars: conclusion of Example 16. How it is done:
This example investigated the tooth remineralisation properties of a complex according to the invention.
BMM: basal medium mucin models the nutrients present in saliva and was prepared following Wong et al, “Calcium phosphate deposition in human dental plaque microcosm biofilms induced by a ureolytic pH-rise procedure” Archives of Oral Biology 47 (2002) 779-790
The complex according to the invention was tested for its tooth remineralisation properties using the methodology described in Wong et al, “Calcium phosphate deposition in human dental plaque microcosm biofilms induced by a ureolytic pH-rise procedure” Archives of Oral Biology 47 (2002) 779-790.
Ca & P units: mmol/g protein, F units: μmol/g protein
Mineralisation regime: 14 days mineralisation; 3 doses of testing composition and 10% sucrose daily

The test system of data set [2] is people living in fluoridated areas. Conditions: fluoride in drinking water; cited from earlier work.

With “Stearamidopropyl Dimethylamine Glycerophosphate [Example 14]”, the tooth remineralisation properties entry in data set [1] is given as “has tooth remineralisation properties”.

As for `F` [fluoride], in data set [2], the “aesthetically unacceptable changes to the appearance of teeth” value is listed as “at least 12.5%” and the incidence of fluorosis is at most 48%.
